Patent publication US20230372262A1, “COMPOSITION FOR TREATING VASCULAR DISEASE, COMPOSITION FOR REVENTING VASCULAR DISEASE, COMPOSITION FOR TREATING HYPERTENSION, AND COMPOSITION FOR PREVENTING HYPERTENSION” (KINKI UNIVERSITY, priority 2020, published 2023)

Tests used:
[1] = system: elastic lamina of thoracic aorta and abdominal aorta; assay: Rate of destruction of elastic lamina in aorta of mice given nicotine water and inhaled β-caryophyllene (Example 9); type: in vivo, ddy mice; details: for Rate of destruction (%) of elastic lamina: mouse aorta, nicotine 0.5 mg/mL in drinking water and/or β-caryophyllene inhalation 1 hour per exposure day; for Evaluation (rate of destruction): as Table 10
Excerpt: After the test, thoracic aorta and abdominal aorta were obtained by dissection. Each harvested aorta was Elastica van Gieson (EVG)-stained to measure and evaluate the rate of destruction of elastic lamina.

[2] = system: rat abdominal aorta (elastic lamina); assay: Rate of destruction of elastic lamina in cultured abdominal aorta with nicotine, EVG staining (Examples 5 to 7); details: as Table 7 rate of destruction
Experimental: Unnecessary surrounding tissues were removed from the harvested abdominal aorta, which was then dipped in a medium for aorta culture. […] These abdominal aorta specimens were cultured in a medium for aorta culture under conditions of 37° C. and 5% CO2 for 24 hours. […] Specifically, the aortic wall was stained by Elastica van Gieson (EVG) staining and immunohistochemical staining. The quantitative analysis of the histochemical stain was carried out using ImageJ software (National Institutes of Health, Bethesda, Maryland, USA). Since an elastic lamina waveform is EVG-stained, the destruction of the vascular wall was estimated from the ratio of its area. The rate of destruction of the wavy configuration of elastic lamina was calculated by dividing a destroyed region (indicated by flattening and fragmentation of elastic lamina) by the whole region of the elastic lamina.

[3] = system: rat abdominal aorta (elastic lamina); assay: Recovery of elastic fibra in cultured abdominal aorta after nicotine (Example 8); details: for Evaluation (rate of destruction): as Table 9; for Rate of destruction (%) of elastic lamina: rat abdominal aorta, nicotine 24 h, then nothing, 24 h nicotine-free medium, or 24 h β-caryophyllene 100 nM

Row | Structure (SMILES) | Rate of destruction (%) of elastic lamina [1] [%] | Evaluation (rate of destruction) [2] | Evaluation (rate of destruction) [3] | Rate of destruction (%) of elastic lamina [3] [%] | Evaluation (rate of destruction) [1]
1 | C=C1CC/C=C(\C)CC[C@@H]2[C@@H]1CC2(C)C [Example 5, β-caryophyllene] | 15 | A (When the rate of destruction of the elastic lamina waveform was less than 30%, the sample was evaluated as having a state in which the vascular wall was not destroyed (evaluation A)) | – | – | –
2 | C=C1CC/C=C(\C)CC[C@@H]2[C@@H]1CC2(C)C [Example 8, β-caryophyllene] | – | – | A (A rate of destruction of 35% or less was given evaluation A) | 18 | –
3 | C=C1CC/C=C(\C)CC[C@@H]2[C@@H]1CC2(C)C [Example 9, β-caryophyllene] | 15 | – | – | – | A (When the rate of destruction of the elastic lamina waveform was less than 30%, the sample was evaluated as having a state in which the vascular wall was not destroyed (evaluation A))
4 | CN1CCCC1c1cccnc1 (single isomer, unassigned) [Comparative Example 5, nicotine] | – | – | B (a rate of destruction of more than 35% was given B) | 58 | –
5 | CN1CCCC1c1cccnc1 (stereo not drawn) [Comparative Example 2, nicotine, reference compound] | – | B (When the rate of destruction of the elastic lamina waveform was 30% or more, the sample was evaluated as having a state in which the vascular wall was destroyed (evaluation B)) | – | – | –
6 | C=C1CC/C=C(\C)CC[C@@H]2[C@@H]1CC2(C)C [Comparative Example 7, β-caryophyllene] | 11 | – | – | – | A (When the rate of destruction of the elastic lamina waveform was less than 30%, the sample was evaluated as having a state in which the vascular wall was not destroyed (evaluation A))
7 | CN1CCCC1c1cccnc1 (stereo not drawn) [Comparative Example 8, nicotine, reference compound] | 42 | – | – | – | B (When the rate of destruction of the elastic lamina waveform was 30% or more, the sample was evaluated as having a state in which the vascular wall was destroyed (evaluation B))
8 | CN1CCCC1c1cccnc1 (single isomer, unassigned) [Comparative Example 4, nicotine] | – | – | B (a rate of destruction of more than 35% was given B) | 54 | –
